Measured values reported in PMC3787887 (International Journal of Oncology, 2013).
Several values for one entry are separate records, joined by “and”; a condition that tells them apart may be missing. Identical values can stand only once. Each block holds one molecule with its values, some of them ahead of it.

Key:
[1] = system: A549 cells; test: Cellular uptake of PS, A549; type: cell-based, human; conditions: 1 h; for increase in the intracellular accumulation of PS by transporter inhibitor: co-incubation with 100 μM PS
[2] = system: SW480 cells; test: Cellular uptake of PS, SW480; type: cell-based, human; conditions: 1 h; for enhancement of the cellular accumulation of PS by transporter inhibitor: co-incubation with 100 μM PS
[3] = system: A549 cells; test: Cell growth inhibition; type: cell-based, human; conditions: PS 80 μM 24 h, curcumin 100 μM pretreatment
[4] = system: human lung cancer xenografts; conditions: cited from earlier work
[5] = system: A549 xenografts; test: A549 subcutaneous xenografts in nude mice; type: in vivo; conditions: for inhibition of human lung cancer xenografts (abstract, measure not named): PS 200 mg/kg, curcumin 500 mg/kg, oral gavage; for tumor volume at the end of the study: day 36, mean ± SEM; for reduction in tumor volume: end of study
[6] = Pharmacokinetic study in mice, plasma PS metabolites by HPLC; type: in vivo
[7] = system: A549 cells; test: Apoptotic cell death analysis; type: cell-based, human; conditions: 20-h incubation
[8] = Plasma and tumor drug levels at end of xenograft study; type: in vivo, nude mice
[9] = system: lung cancer; conditions: pre-clinical models of lung cancer; cited from earlier work
[10] = PS 200 mg/kg/d, curcumin 500 mg/kg/d
[11] = vs control, PS 200 mg/kg/d, curcumin 500 mg/kg/d
[12] = plasma metabolite after PS 200 mg/kg + curcumin 500 mg/kg in 10% Tween-80
[13] = plasma metabolite after PS 200 mg/kg + curcumin 500 mg/kg in micelles
[14] = plasma metabolite after single oral dose PS 200 mg/kg alone
[15] = curcumin 25 μM co-added with PS

SMILES: COc1ccc2c3c([nH]c2c1)[C@H](CC(C)C)N1C(=O)[C@H](CCC(=O)OC(C)(C)C)NC(=O)[C@@H]1C3 [Ko143]
increase in the intracellular accumulation of PS by transporter inhibitor [1]: no effect

SMILES: CN(C)C(=O)CCSC(SCCC(=O)O)c1cccc(/C=C/c2ccc3ccc(Cl)cc3n2)c1 (stereo not shown) [MK571]
enhancement of the cellular accumulation of PS by transporter inhibitor [2]: 30%
increase in the intracellular accumulation of PS by transporter inhibitor [1]: 51%

intact PS in plasma ([6]; any of the three treatments): not detected
total plasma AUC0–24 h (sum of all metabolites) ([6]; single oral dose PS 200 mg/kg, curcumin 500 mg/kg): 211 µM·h
SMILES: CCOP(=O)(OCC)OCCCCOC(=O)CC1=C(C)/C(=C/c2ccc([S+](C)[O-])cc2)c2ccc(F)cc21 (stereo not shown) [PS, Phospho-sulindac]
reduction of cell viability [3]: 30%
efficacy as a single agent in the treatment of human lung cancer xenografts [4]: ineffective
inhibition of human lung cancer xenografts (abstract, measure not named) [5]: 25%
adverse effects on the mice during the study [5, 10]: no apparent adverse effects
body weight at sacrifice [5, 10]: 23 ± 1 g
effect on the growth of A549 xenografts (in words) [5, 10]: did not significantly inhibit
tumor volume at the end of the study [5, 10]: 419±36 mm^3
reduction in tumor volume [5, 11]: 19.6% and 20%
reduction in tumor weight ([5]; end-point, vs control, PS 200 mg/kg/d, curcumin 500 mg/kg/d): 27%
percentage of apoptotic cells ([7]; PS 80 μM alone or with curcumin 100 μM): 3.9%
percentage of apoptotic cells ([7]; PS 100 μM alone or with curcumin 100 μM): 5.0%

level in A549 xenografts, PS plus curcumin group vs PS alone group [8]: 3 fold higher
SMILES: CSc1ccc(/C=C2/C(C)=C(CC(=O)O)c3cc(F)ccc32)cc1 [Sulindac sulfide, sulindac sulfide]

Cmax [6, 12]: 11.7 µM
Tmax [6, 12]: 4 h
Cmax [6, 13]: 7.7 µM
Tmax [6, 13]: 4 h
Cmax [6, 14]: 5.6 µM
Tmax [6, 14]: 4 h
level in A549 xenografts, PS plus curcumin group vs PS alone group [8]: 5 fold higher
SMILES: CC1=C(CC(=O)O)c2cc(F)ccc2/C1=C\c1ccc(S(C)(=O)=O)cc1 [Sulindac sulfone, sulindac sulfone]

increase of Cmax vs PS alone ([6]; PS co-administered with curcumin in 10% Tween-80): 70%
increase of Cmax vs PS alone ([6]; PS co-administered with curcumin in nanoparticles): 40%
level in A549 xenografts, PS plus curcumin group vs PS alone group [8]: 1 fold higher
SMILES: CC1=C(CC(=O)O)c2cc(F)ccc2/C1=C\c1ccc([S+](C)[O-])cc1 (stereo not shown) [Sulindac, sulindac, reference compound]

level in the plasma ([8]; curcumin and PS plus curcumin groups): minute levels
SMILES: COc1cc(/C=C/C(=O)CC(=O)/C=C/c2ccc(O[C@@H]3O[C@H](C(=O)O)[C@@H](O)[C@H](O)[C@H]3O)c(OC)c2)ccc1O [curcumin glucuronide]
detection in A549 xenografts [8]: Neither curcumin, nor its glucuronide, was detected

SMILES: COc1cc(/C=C/C(=O)CC(=O)/C=C/c2ccc(O)c(OC)c2)ccc1O [curcumin, Curcumin, reference compound]
reduction of cell viability [3]: 4%
increase of uptake of PS ([2]; curcumin 5 μM co-added with PS): 37%
increase of uptake of PS [2, 15]: 54%
efficacy as a single agent [9]: < 30%
inhibition of human lung cancer xenografts (abstract, measure not named) [5]: no effect
adverse effects on the mice during the study [5, 10]: no apparent adverse effects
body weight at sacrifice [5, 10]: 23 ± 1 g
effect on the growth of A549 xenografts (in words) [5, 10]: did not significantly inhibit
tumor volume at the end of the study [5, 10]: 599±98 mm^3
reduction in tumor volume [5, 11]: no inhibition
increase of intracellular levels of PS ([1]; curcumin 5 μM co-added with PS): 23%
increase of intracellular levels of PS [1, 15]: 60%

SMILES: COc1ccc(CCN(C)CCCC(C#N)(c2ccc(OC)c(OC)c2)C(C)C)cc1OC (stereo not shown) [verapamil]
enhancement of the cellular accumulation of PS by transporter inhibitor [2]: 67%
increase in the intracellular accumulation of PS by transporter inhibitor [1]: no effect
